Laboratory results taken from patent US20220096475A1, “METHOD FOR TREATING SARCOIDOSIS-ASSOCIATED PULMONARY HYPERTENSION” (ALTAVANT SCIENCES GmbH, priority 2018, published 2022).

Experiments:
[1] = stability and shelf life of crystalline polymorphs; format: physicochemical; conditions: particularly at temperatures of less than 95° C.
TPH1 = molecular target: T1, TPH1 (Mus musculus, UniProt P17532); conditions: amorphous form; cited from earlier work
T1 construct: from tissue; host or cells: mice (in vivo)
T1 sequence (P17532 1-447): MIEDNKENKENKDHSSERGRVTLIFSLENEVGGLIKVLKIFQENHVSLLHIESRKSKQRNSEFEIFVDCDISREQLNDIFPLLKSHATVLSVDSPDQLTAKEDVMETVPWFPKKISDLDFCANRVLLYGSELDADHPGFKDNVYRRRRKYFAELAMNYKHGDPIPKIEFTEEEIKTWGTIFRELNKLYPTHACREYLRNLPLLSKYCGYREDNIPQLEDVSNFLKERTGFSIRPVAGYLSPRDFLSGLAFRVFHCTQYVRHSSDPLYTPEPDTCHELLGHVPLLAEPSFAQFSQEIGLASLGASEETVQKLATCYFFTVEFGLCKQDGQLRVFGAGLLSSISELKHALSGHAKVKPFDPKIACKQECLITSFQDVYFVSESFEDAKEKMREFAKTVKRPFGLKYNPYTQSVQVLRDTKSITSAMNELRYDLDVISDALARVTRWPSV

| Structure (SMILES) | stability and shelf life compared to the crystalline Form 1 polymorph [1] | efficacy in inhibiting TPH1 in mice (TPH1) |
| --- | --- | --- |
| CCOC(=O)[C@@H]1CC2(CCN(c3cc(O[C@H](c4ccc(Cl)cc4-c4ccccc4)C(F)(F)F)nc(N)n3)CC2)CN1 [crystalline Form 3 polymorph, (S)-ethyl 8-(2-amino-6-((R)-1-(5-chloro-[1,1′-biphenyl]-2-yl)-2,2,2-trifluoroethoxy)pyrimidin-4-yl)-2,8-diazaspiro[4.5]decane-3-carboxylate] | substantially greater stability and shelf life | – |
| CCOC(=O)[C@@H]1CC2(CCN(c3cc(O[C@H](c4ccc(Cl)cc4-c4ccccc4)C(F)(F)F)nc(N)n3)CC2)CN1 [Compound A, (S)-ethyl 8-(2-amino-6-((R)-1-(5-chloro-[1,1′-biphenyl]-2-yl)-2,2,2-trifluoroethoxy)pyrimidin-4-yl)-2,8-diazaspiro[4.5]decane-3-carboxylate] | – | demonstrated |
